# Source: paper PMC8138761 (The Journal of Biological Chemistry, 2021)
# Tests used:
# Assay type in all cases: biochemical
# Conditions in all cases: read-out: % inhibition at 10 μM
# [1] = molecular target: T1, serine/threonine kinase D2 (Homo sapiens, UniProt Q9BZL6); assay: in vitro FRET kinase profiling at […], duplicate
# T1 sequence (Q9BZL6 1-878): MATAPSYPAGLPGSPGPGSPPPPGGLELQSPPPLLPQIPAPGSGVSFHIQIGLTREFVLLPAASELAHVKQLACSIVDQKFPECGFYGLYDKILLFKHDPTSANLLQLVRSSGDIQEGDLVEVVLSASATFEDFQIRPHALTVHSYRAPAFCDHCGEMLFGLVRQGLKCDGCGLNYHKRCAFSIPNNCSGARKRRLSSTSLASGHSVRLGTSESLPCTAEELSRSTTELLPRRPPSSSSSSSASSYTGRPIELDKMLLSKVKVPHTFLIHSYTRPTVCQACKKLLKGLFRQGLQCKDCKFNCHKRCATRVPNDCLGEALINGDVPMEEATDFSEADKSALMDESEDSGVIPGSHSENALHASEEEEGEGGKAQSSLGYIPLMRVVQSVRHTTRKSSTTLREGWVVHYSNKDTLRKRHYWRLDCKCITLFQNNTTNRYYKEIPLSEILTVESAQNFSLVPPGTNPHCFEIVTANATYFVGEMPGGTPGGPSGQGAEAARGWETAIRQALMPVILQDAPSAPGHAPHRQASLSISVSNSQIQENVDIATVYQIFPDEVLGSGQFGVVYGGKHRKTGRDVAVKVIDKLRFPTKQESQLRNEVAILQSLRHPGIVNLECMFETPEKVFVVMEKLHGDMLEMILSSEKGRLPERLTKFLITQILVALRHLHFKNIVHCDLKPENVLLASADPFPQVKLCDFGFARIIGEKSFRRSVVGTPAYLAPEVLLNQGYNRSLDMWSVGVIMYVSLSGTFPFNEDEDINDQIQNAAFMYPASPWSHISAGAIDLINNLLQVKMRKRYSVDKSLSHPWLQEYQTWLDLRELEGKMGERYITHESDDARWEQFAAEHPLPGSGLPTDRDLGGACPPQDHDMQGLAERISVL
# [2] = molecular target: leucine-rich repeat kinase-2 (LRRK2) (Homo sapiens, UniProt Q5S007); assay: in vitro FRET kinase profiling at […], duplicate
# [3] = molecular target: glycogen synthase kinase 3-beta (GSK3-β) (Homo sapiens, UniProt P49841); assay: in vitro FRET kinase profiling
# [4] = molecular target: T2, serine/threonine protein kinase-3 (MST2) (Homo sapiens, UniProt Q13188); assay: in vitro FRET kinase profiling at […], duplicate
# T2 sequence (Q13188 1-491): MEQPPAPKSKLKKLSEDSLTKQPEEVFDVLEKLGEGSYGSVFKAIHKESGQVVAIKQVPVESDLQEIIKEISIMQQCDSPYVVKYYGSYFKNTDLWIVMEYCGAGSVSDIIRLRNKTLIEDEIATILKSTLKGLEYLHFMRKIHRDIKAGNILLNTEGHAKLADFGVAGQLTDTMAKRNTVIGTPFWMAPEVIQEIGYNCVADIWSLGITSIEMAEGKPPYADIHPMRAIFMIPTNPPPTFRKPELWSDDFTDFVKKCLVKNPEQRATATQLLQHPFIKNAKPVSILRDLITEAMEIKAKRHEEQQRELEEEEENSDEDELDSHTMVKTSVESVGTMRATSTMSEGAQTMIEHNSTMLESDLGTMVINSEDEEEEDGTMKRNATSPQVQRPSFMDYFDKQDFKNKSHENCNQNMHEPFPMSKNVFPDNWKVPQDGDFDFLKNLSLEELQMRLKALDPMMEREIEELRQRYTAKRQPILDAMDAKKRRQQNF
# [5] = molecular target: cyclin-dependent kinase 5 (CDK5) (Homo sapiens, UniProt Q00535); assay: in vitro FRET kinase profiling at […], duplicate
# [6] = molecular target: cyclin-dependent kinase (CDK) 1 (Homo sapiens, UniProt P06493); assay: in vitro FRET kinase profiling at […], duplicate
# [7] = molecular target: T3, serine/threonine protein kinase-4 (MST1) (Homo sapiens, UniProt Q13043); assay: in vitro FRET kinase profiling at […], duplicate
# T3 sequence (Q13043 1-487): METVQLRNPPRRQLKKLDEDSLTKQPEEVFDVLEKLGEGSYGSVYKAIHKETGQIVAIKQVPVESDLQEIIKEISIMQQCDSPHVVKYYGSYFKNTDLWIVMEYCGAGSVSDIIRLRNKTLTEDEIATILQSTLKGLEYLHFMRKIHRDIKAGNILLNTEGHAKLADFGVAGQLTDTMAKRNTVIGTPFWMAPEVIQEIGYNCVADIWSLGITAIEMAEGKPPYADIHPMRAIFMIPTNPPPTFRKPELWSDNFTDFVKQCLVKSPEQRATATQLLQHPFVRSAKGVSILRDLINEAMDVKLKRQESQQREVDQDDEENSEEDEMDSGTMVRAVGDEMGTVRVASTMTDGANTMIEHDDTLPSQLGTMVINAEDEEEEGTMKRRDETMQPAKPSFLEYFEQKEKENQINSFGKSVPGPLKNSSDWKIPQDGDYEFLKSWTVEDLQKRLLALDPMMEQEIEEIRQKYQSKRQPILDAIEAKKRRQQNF
# [8] = molecular target: T4, checkpoint kinase-1 (CHK1) (Homo sapiens, UniProt O14757); assay: in vitro FRET kinase profiling at […], duplicate
# T4 sequence (O14757 1-476): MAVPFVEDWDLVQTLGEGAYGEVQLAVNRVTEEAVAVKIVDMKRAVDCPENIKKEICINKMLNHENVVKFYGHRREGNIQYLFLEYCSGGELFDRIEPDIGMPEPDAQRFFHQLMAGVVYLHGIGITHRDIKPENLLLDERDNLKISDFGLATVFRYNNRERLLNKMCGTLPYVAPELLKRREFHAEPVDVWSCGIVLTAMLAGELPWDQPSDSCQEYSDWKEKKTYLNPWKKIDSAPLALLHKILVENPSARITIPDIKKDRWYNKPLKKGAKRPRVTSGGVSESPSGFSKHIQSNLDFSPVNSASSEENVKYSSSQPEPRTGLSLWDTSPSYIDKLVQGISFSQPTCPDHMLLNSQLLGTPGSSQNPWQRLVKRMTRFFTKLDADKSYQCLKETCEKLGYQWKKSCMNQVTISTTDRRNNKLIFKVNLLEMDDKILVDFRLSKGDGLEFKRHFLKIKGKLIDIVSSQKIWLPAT
# [9] = molecular target: checkpoint kinase-2 (CHK2) (Homo sapiens, UniProt O96017); assay: in vitro FRET kinase profiling at […], duplicate
# [10] = molecular target: serine/threonine protein kinase-24 (MST3) (Homo sapiens, UniProt Q9Y6E0); assay: in vitro FRET kinase profiling at […], duplicate
# Sequence of serine/threonine protein kinase-24 (MST3) (Q9Y6E0 whole entry): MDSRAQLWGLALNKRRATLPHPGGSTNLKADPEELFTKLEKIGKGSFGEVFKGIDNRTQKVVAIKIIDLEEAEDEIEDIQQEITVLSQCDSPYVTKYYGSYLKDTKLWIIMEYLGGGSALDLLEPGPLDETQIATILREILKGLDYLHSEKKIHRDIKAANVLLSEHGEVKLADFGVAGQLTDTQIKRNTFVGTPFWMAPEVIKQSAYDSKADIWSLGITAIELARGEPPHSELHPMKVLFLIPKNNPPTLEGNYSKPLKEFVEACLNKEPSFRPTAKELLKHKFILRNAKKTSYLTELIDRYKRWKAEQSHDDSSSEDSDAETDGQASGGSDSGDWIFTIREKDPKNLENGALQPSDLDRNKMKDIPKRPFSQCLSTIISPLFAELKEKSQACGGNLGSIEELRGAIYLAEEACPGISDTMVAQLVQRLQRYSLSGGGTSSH
# Sequence of leucine-rich repeat kinase-2 (LRRK2) (Q5S007 whole entry): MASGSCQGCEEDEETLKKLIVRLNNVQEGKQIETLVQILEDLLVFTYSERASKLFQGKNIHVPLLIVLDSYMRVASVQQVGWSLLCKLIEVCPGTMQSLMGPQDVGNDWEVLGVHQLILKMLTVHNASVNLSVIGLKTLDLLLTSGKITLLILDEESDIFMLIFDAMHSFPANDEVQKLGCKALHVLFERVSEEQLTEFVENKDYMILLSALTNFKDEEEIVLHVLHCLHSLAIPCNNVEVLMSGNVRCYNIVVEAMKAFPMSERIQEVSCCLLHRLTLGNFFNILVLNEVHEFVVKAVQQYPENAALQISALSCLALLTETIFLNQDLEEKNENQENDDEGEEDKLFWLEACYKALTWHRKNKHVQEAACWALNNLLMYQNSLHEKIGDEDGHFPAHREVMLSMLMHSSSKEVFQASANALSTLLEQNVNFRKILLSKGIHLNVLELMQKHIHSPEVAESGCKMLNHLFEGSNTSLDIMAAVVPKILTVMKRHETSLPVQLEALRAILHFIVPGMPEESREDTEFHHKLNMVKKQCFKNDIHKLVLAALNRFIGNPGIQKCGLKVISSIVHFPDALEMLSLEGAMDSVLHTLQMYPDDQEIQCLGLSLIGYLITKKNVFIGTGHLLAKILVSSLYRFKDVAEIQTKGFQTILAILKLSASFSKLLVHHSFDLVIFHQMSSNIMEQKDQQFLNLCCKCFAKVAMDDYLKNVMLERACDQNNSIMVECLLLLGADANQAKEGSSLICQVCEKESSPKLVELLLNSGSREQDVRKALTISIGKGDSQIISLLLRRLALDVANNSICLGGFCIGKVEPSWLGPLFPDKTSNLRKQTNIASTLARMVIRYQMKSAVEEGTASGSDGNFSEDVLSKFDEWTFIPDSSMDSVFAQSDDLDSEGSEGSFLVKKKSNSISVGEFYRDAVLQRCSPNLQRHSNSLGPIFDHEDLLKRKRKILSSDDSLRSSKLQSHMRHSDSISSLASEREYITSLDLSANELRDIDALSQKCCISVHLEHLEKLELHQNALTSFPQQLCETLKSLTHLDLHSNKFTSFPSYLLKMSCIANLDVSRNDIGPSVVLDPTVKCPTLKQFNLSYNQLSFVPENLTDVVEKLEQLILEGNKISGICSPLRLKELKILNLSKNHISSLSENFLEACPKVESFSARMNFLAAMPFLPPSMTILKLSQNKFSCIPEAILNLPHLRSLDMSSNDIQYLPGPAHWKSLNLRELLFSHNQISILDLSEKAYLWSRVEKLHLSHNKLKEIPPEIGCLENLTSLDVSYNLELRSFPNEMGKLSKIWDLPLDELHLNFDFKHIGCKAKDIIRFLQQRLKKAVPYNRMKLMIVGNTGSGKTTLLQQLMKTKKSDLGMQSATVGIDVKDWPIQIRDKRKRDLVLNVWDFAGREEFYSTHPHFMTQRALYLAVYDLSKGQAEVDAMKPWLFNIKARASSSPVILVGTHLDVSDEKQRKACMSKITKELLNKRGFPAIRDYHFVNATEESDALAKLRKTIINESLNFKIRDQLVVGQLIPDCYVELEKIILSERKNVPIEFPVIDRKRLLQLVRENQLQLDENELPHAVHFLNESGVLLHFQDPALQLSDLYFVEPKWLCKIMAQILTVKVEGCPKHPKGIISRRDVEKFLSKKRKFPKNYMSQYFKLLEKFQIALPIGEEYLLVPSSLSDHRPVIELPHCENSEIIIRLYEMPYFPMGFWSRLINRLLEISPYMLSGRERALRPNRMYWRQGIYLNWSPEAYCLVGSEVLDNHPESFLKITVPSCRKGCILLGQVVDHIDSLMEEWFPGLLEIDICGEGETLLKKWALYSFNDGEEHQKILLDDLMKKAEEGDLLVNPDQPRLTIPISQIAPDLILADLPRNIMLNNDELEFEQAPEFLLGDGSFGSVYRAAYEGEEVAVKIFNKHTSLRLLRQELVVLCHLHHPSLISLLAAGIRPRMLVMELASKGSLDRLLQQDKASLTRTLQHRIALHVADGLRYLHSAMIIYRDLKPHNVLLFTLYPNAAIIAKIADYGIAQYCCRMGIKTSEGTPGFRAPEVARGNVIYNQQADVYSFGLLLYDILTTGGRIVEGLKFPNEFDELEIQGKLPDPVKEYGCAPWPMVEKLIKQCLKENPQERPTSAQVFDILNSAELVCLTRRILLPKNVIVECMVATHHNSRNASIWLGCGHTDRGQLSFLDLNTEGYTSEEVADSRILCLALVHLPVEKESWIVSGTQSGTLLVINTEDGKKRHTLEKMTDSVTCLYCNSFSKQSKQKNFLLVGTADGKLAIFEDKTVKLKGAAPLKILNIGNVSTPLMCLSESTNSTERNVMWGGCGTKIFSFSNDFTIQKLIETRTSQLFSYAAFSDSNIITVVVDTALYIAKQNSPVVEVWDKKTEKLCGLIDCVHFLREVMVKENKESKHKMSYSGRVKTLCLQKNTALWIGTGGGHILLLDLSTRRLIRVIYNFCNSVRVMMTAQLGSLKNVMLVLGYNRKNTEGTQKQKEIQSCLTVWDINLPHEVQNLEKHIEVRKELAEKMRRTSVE
# Sequence of cyclin-dependent kinase (CDK) 1 (P06493 whole entry): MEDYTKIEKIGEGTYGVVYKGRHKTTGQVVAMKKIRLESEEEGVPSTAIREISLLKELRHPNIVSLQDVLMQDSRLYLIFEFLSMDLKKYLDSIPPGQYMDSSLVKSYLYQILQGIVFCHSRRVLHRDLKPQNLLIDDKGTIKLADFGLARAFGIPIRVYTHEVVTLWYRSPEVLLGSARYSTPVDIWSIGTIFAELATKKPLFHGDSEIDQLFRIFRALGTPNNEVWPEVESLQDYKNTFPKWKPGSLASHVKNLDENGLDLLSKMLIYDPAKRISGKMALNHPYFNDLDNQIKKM
# Sequence of cyclin-dependent kinase (CDK) 1 (P14635 whole entry, further chain): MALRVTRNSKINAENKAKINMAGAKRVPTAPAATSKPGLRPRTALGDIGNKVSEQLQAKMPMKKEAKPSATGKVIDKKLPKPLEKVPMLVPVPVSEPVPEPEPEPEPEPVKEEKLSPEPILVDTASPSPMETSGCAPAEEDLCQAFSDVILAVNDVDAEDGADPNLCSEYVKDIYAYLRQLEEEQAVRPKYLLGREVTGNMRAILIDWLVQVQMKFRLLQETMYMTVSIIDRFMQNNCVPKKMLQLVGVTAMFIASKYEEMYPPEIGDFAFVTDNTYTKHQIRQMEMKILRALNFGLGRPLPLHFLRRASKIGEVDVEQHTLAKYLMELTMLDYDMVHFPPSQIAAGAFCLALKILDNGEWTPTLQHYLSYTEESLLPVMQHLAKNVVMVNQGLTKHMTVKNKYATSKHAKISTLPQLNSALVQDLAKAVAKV
# Sequence of cyclin-dependent kinase 5 (CDK5) (Q00535 whole entry): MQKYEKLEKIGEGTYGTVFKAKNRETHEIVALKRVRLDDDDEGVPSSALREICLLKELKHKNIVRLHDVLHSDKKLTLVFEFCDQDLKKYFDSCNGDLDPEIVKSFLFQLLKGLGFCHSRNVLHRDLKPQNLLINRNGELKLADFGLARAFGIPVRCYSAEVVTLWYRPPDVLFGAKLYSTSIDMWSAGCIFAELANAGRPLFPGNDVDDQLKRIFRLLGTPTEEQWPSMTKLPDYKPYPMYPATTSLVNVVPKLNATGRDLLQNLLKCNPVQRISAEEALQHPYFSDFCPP
# Sequence of cyclin-dependent kinase 5 (CDK5) (Q15078 2-307 partner): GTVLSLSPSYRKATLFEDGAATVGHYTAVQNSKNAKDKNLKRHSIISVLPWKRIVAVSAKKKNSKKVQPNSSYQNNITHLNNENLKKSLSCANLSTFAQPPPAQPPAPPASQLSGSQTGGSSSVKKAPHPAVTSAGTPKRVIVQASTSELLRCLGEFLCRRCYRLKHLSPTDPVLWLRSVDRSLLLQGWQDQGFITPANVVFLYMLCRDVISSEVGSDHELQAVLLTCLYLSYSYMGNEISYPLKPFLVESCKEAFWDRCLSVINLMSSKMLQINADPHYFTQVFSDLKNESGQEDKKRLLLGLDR
# Sequence of glycogen synthase kinase 3-beta (GSK3-β) (P49841 whole entry): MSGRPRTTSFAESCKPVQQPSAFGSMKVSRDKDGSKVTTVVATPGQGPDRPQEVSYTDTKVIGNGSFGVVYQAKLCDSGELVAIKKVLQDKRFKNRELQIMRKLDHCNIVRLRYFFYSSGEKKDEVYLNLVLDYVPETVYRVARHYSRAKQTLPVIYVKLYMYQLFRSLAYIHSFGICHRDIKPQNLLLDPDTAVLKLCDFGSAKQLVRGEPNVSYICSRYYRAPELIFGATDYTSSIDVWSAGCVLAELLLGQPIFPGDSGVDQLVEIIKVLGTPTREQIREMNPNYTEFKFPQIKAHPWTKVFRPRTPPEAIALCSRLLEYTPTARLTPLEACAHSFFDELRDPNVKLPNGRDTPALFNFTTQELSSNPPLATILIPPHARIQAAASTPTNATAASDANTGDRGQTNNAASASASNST
smiles,measurement,setting,value
Cc1cc(C)c2[nH]c(=O)c(-c3[nH]cnc3-c3ccccc3)cc2c1 [DIPQUO],inhibition at 10 µM,[1],> 70%
same,inhibition at 10 µM,[2],> 70%
same,inhibition at 10 µM,[3],100%
same,inhibition at 10 µM,[4],> 70%
same,inhibition at 10 µM,[5],> 70%
same,inhibition at 10 µM,[6],> 70%
same,inhibition at 10 µM,[7],> 70%
same,inhibition at 10 µM,[8],> 70%
same,inhibition at 10 µM,[9],> 70%
same,inhibition at 10 µM,[10],> 70%
